What is called Ki is a dissociation constant, usually derived from enzyme kinetics or from competition with a known ligand.

SMILES strings stand for the structures. Where two headings read alike, the source gives them in different places. Peptide text beside a SMILES is read from it.

Assay [1] addresses T1, hMC4-R (Homo sapiens (Human), UniProt P32245). Nature of the assay: Competitive inhibition binding assay using [I125]-NDP-α-MSH. Particulars: averaged; determined using [I125]-NDP-α-MSH (values not marked *); read-out: MC4-R Ki. As to the method: A competitive inhibition binding assay is performed using membrane homogenates prepared from HEK-293 cells that express recombinant hMC4-R, hMC3-R, or hMC5-R, and from B-16 mouse melanoma cells (containing endogenous MC1-R). In some instances, HEK-293 cells that express recombinant hMC1-R were employed. In the examples that follow, all MC3-R, MC4-R and MC5-R values are for human recombinant receptors. […] Membrane homogenates were incubated with 0.2 nM (for hMC4-R) 0.4 nM (for MC3-R and MC5-R) or 0.1 nM (for mouse B16 MC1-R or hMC1-R) [I^125]-NDP-α-MSH (Perkin Elmer) and increasing concentrations of test peptides of the present invention in buffer containing 25 mM HEPES buffer (pH 7.5) with 100 mM NaCl, 2 mM CaCl2, 2 mM MgCl2, 0.3 mM 1,10-phenanthroline, and 0.2% bovine serum albumin. After incubation for 60 minutes at 37° C., the assay mixture was filtered and the membranes washed three times with ice-cold buffer. Filters were dried and counted in a gamma counter for bound radioactivity. […] Maximal specific binding (100%) was defined as the difference in radioactivity (cpm) bound to cell membranes in the absence and presence of 1 μM NDP-α-MSH. […] Each assay was conducted in triplicate and the actual mean values are described, with results less than 0% reported as 0%. Ki values for test peptides of the present invention were determined using Graph-Pad Prism® curve-fitting software.

The target of another assay is hMC1-R (Homo sapiens (Human), UniProt Q01726). Nature of the assay: Functional assay for agonist activity at hMC1-R. The assay is classed as cell-based. The settings on record: intrinsic activity.
For assay [2], the target named is T1, hMC4-R. Nature of the assay: Assay for agonist activity (cAMP accumulation in HEK-293 cells). The assay is classed as cell-based. Particulars: for Emax: HEK293; for functional classification at MC4-R: agonist = intrinsic activity 70% or higher, partial agonist 10-70%.
Procedure: Accumulation of intracellular cAMP was examined as a measure of the ability of the peptides of the present invention to elicit a functional response in HEK-293 cells that express MC4-R. Confluent HEK-293 cells that express recombinant hMC4-R were detached from culture plates by incubation in enzyme-free cell dissociation buffer. Dispersed cells were suspended in Earle's Balanced Salt Solution containing 10 mM HEPES (pH 7.5), 1 mM MgCl2, 1 mM glutamine, 0.5% albumin and 0.3 mM 3-isobutyl-1-methyl-xanthine (IBMX), a phosphodiesterase inhibitor. […] Cells were exposed for 15 minutes at 37° C. to peptides of the present invention dissolved in DMSO (final DMSO concentration of 1%) at a concentration range of 0.05-5000 nM in a total assay volume of 200 μL. […] Data analysis was performed by nonlinear regression analysis with Graph-Pad Prism® software. The maximum efficacies of the test peptides of the present invention were compared to that achieved by the reference melanocortin agonist NDP-αMSH.
The target in assay [3] is T1, hMC4-R. Nature of the assay: Competitive binding assay using Eu-NDP-α-MSH. The settings on record: averaged; determined using Eu-NDP-α-MSH (values marked *); read-out: MC4-R Ki. As to the method: Alternatively, a competitive inhibition binding assay was performed employing Eu-NDP-α-MSH (PerkinElmer Life Sciences catalog No. AD0225) with determination by time-resolved fluorometry (TRF) of the lanthanide chelate. […] After incubation for 90 minutes at 37° C., the reaction was stopped by filtration over AcroWell 96-well filter plates (Pall Life Sciences). The filter plates were washed 4 times with 200 μL of ice-cold phosphate-buffered saline. DELFIA Enhancement solution (PerkinElmer Life Sciences) was added to each well. […] Each assay was conducted in duplicate and mean values were utilized. Ki values were determined by curve-fitting with Graph-Pad Prism® software using a one-site fixed-slope competition binding model.

Assay [4] can be described thus: Food intake and body weight change in rats. The format is in vivo, rat. The settings on record: for food intake / rate of change in body weight: rat feeding study, 0.3 and 1 mg/kg; for decrease in food consumption compared to control: rats. How it is done: Change in food intake and body weight was evaluated for selected peptides administered by intravenous (IV) or subcutaneous injection routes. Male Sprague-Dawley rats were obtained from Hilltop Lab Animals, Inc. (Scottsdale, Pa.) or other vendors. Animals were individually housed in conventional polystyrene hanging cages and maintained on a controlled 12 hour on/off light cycle. Water and pelleted food was provided ad libitum. The rats were dosed IV with vehicle or selected peptides (0.3 to 1.0 mg/kg), or dosed subcutaneously with vehicle or selected peptides (doses up to 30 mg/kg). […] The changes in body weight and food intake for the 48 hour and 72 hour periods after dosing can also be measured to determine reversal of changes in body weight and food intake effects back to baseline levels.

The nature of assay [5]: Induction of penile erection in male rats. The format is in vivo, rat.
Procedure: The ability of peptides of the present invention to induce penile erection (PE) in male rats were evaluated with selected peptides. Male Sprague-Dawley rats weighing 250-300 g were kept on a 12 hour on/off light cycle with food and water ad libitum. All behavioral studies were performed between 9 a.m. and 4 p.m. […] Rats are observed for one hour, and the number of yawns, grooming bouts and PEs are recorded in 10-minute bins.
[6] abbreviates: intrinsic activity, read-out: hMC4-R Emax (%).
Where [7] appears, read: 1 mg/kg, 0-2, 0-4 and 0-20 hour periods.
Where [8] appears, read: NDP-α-MSH is 100%, read-out: intrinsic activity at MC4-R.

Chain of hMC1-R (Q01726 whole entry): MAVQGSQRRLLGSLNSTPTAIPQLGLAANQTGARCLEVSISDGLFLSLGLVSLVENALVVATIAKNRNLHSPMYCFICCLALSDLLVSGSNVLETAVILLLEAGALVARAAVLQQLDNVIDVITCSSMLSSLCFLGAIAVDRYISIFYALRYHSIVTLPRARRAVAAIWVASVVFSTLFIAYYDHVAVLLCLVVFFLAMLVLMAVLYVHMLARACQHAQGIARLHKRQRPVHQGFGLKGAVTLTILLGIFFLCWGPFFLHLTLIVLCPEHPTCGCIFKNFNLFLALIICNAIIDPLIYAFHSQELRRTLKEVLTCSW
T1 sequence (P32245 whole entry): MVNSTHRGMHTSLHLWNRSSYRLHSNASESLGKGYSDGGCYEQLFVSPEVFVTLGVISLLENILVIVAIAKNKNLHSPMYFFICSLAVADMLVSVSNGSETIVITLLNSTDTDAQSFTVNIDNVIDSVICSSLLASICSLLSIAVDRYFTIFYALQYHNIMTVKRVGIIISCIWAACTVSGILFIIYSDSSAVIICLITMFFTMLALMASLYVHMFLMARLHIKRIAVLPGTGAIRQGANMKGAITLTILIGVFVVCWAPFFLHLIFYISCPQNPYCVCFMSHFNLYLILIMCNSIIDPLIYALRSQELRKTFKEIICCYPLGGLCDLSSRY

In the case of `CC(=O)N[C@@H](CCCNC(=N)N)C(=O)N[C@H]1CC(=O)NCCCC[C@@H](C(N)=O)NC(=O)[C@H](Cc2c[nH]c3ccccc23)NC(=O)[C@H](CCCNC(=N)N)NC(=O)[C@@H](Cc2ccccc2)NC(=O)[C@@H]2C[C@@H](O)CN2C1=O` [compound 101, Ac-Arg-cyclo(Glu-Hyp- D-Phe-Arg-Trp-Orn)- NH2], the Ki at hMC4-R [1] was 3 nM.
Consider `CC(=O)N[C@H](CCCNC(=N)N)C(=O)N[C@H]1CCCNC(=O)CC[C@@H](C(N)=O)NC(=O)[C@H](Cc2c[nH]c3ccccc23)NC(=O)[C@H](CCCNC(=N)N)NC(=O)[C@@H](Cc2ccccc2)NC(=O)[C@H](CCC(N)=O)NC1=O` [compound 152, Ac-D-Arg-cyclo(Orn- Gln-D-Phe-Arg-Trp- Glu)-NH2], for which the Emax on hMC1-R stood at 85%; on hMC4-R [2] (setting [6]), 89%.
For the compound `CC(=O)N[C@@H](CCCNC(=N)N)C(=O)N[C@H]1CCCCNC(=O)C[C@@H](C(N)=O)NC(=O)[C@H](Cc2c[nH]c3ccccc23)NC(=O)[C@H](CCCNC(=N)N)NC(=O)[C@@H](Cc2ccccc2)NC(=O)[C@H](CC(N)=O)NC1=O` [compound 155, Ac-Arg-cyclo(Lys-Asn- D-Phe-Arg-Trp-Asp)- NH2] (HELM PEPTIDE1{[ac].R.K.N.[dF].R.W.D.[am]}$PEPTIDE1,PEPTIDE1,3:R3-8:R3$$$V2.0), the Emax at hMC1-R stood at 91%; on hMC4-R [2] (setting [6]) it was 97%.
Consider `CC(=O)N[C@@H](CCCNC(=N)N)C(=O)N[C@H]1CC(=O)NCCCC[C@@H](C(=O)O)NC(=O)[C@H](Cc2c[nH]c3ccccc23)NC(=O)[C@H](CCCNC(=N)N)NC(=O)[C@@H](Cc2ccccc2)NC(=O)[C@H](C)NC1=O` [compound 52, Ac-Arg-cyclo(Asp-Ala- D-Phe-Arg-Trp-Lys)-OH] (HELM PEPTIDE1{[ac].R.D.A.[dF].R.W.K}$PEPTIDE1,PEPTIDE1,3:R3-8:R3$$$V2.0), for which the Ki at hMC4-R [3] came to 144 nM.
For the compound `CC(=O)N[C@@H](CCCNC(=N)N)C(=O)N[C@H]1CC(=O)NCCCC[C@@H](C(N)=O)NC(=O)[C@H](Cc2c[nH]c3ccccc23)NC(=O)[C@H](CCCNC(=N)N)NC(=O)[C@@H](Cc2ccccc2)NC(=O)[C@H](C(C)C)NC1=O` [Peptide No. 16, Ac-Arg-cyclo(Asp-Val- D-Phe-Arg-Trp-Lys)- NH2], in assay [4], the food intake result was “reduce food intake” and the “rate of change in body weight” value is listed as “decrease the rate of change in body weight”. Moreover, the “decrease in food consumption compared to control” value (“decrease in food consumption” for short) in assay [4] (0.3 mg/kg, 0-2 and 0-4 hour periods) was “statistically significant”. Besides, the “decrease in food consumption” value in assay [4] (setting [7]) is given as “statistically significant”. For the same compound, the Emax at hMC4-R [2] (setting [8]) came out at 42%. Moreover, at hMC4-R [2], the “functional classification at MC4-R” value is reported as “partial agonist”.
With `CC(=O)N[C@@H](CCCNC(=N)N)C(=O)N[C@H]1CC(=O)NCCCC[C@@H](C(N)=O)NC(=O)[C@H](Cc2c[nH]c3ccccc23)NC(=O)[C@H](CCCNC(N)=O)NC(=O)[C@@H](Cc2ccccc2)NC(=O)[C@H](CCCCN)NC1=O` [compound 116, Ac-Arg-cyclo(Asp-Lys- D-Phe-Cit-Trp-Lys)-NH2] (HELM PEPTIDE1{[ac].R.D.K.[dF].[Cit].W.K.[am]}$PEPTIDE1,PEPTIDE1,3:R3-8:R3$$$V2.0), the Ki at hMC4-R [1] is 873 nM.
For `CC(=O)N[C@@H](CCCNC(=N)N)C(=O)N[C@H]1CCC(=O)NCCC[C@@H](C(N)=O)NC(=O)[C@H](Cc2c[nH]c3ccccc23)NC(=O)[C@H](CCCNC(=N)N)NC(=O)[C@@H](Cc2ccccc2)NC(=O)[C@H](CC(N)=O)NC1=O` [compound 161, Ac-Arg-cyclo/(Glu-Asn- D-Phe-Arg-Trp-Orn)- NH2], the Emax on hMC1-R came to 85%; at hMC4-R [2] (setting [6]), 91%.
`CC(=O)N[C@@H](CCCNC(=N)N)C(=O)N[C@H]1CC(=O)NCCCC[C@@H](C(N)=O)NC(=O)[C@H](Cc2c[nH]c3ccccc23)NC(=O)[C@H](CCCNC(=N)N)NC(=O)[C@@H](Cc2ccccc2)NC(=O)[C@H](Cc2c[nH]cn2)NC1=O` [Peptide No. 1, Ac-Arg-cyclo(Asp-His- D-Phe-Arg-Trp-Lys)- NH2]: in assay [4], the food intake result is listed as “reduce food intake” and the “rate of change in body weight” value was “decrease the rate of change in body weight”. Besides, in assay [4] (0.3 mg/kg, 0-2, 0-4 and 0-20 hour periods), the “decrease in food consumption” value was “statistically significant”. Also, the “decrease in food consumption” value in assay [4] (setting [7]) is “statistically significant”. In addition, the “observed spontaneous erections compared to vehicle” value in assay [5] (IV, 0.3 or 1 mg/kg) is “statistically significant increase”. On hMC4-R [2] (setting [8]), the Emax worked out at 91%. Further, the “functional classification at MC4-R” value at hMC4-R [2] is reported as “agonist”.
Turning to `CC(=O)N[C@@H](CCCNC(=N)N)C(=O)N[C@H]1CC(=O)NCCCC[C@@H](C(N)=O)NC(=O)[C@H](Cc2c[nH]c3ccccc23)NC(=O)[C@H](CCCNC(=N)N)NC(=O)[C@@H](Cc2ccccc2)NC(=O)[C@H](CCC(N)=O)NC1=O` [Peptide No. 32, Ac-Arg-cyclo(Asp-Gln- D-Phe-Arg-Trp-Lys)- NH2], the observed spontaneous erections entry in assay [5] (subcutaneous, 1, 3 or 10 mg/kg) is recorded as “increase in observed spontaneous erections”. Besides, the Emax on hMC4-R [2] (setting [8]) came out at 98%. Besides, the “functional classification at MC4-R” value on hMC4-R [2] was “agonist”.
Regarding `CC(=O)N[C@H](CCCNC(=N)N)C(=O)N[C@H]1CC(=O)NCCCC[C@@H](C(N)=O)NC(=O)[C@H](Cc2c[nH]c3ccccc23)NC(=O)[C@H](CCCNC(=N)N)NC(=O)[C@@H](Cc2ccccc2)NC(=O)[C@H](CCC(N)=O)NC1=O` [compound 71, Ac-D-Arg-cyclo(Asp- Gln-D-Phe-Arg-Trp- Lys)-NH2], the Emax on hMC1-R is 88%; at hMC4-R [2] (setting [6]), 89%.
In the same order, the values of `CC(=O)N[C@@H](CCCNC(=N)N)C(=O)N[C@H]1CCCCNC(=O)C[C@@H](C(N)=O)NC(=O)[C@H](Cc2ccc3ccccc3c2)NC(=O)[C@H](CCCNC(=N)N)NC(=O)[C@@H](Cc2ccccc2)NC(=O)[C@H](CC(N)=O)NC1=O` [compound 162, Ac-Arg-cyclo(Lys-Asn- D-Phe-Arg-Nal 2-Asp)- NH2] (HELM PEPTIDE1{[ac].R.K.N.[dF].R.[O=C([C@H](Cc1ccc2ccccc2c1)N[*:1])[*:2]].D.[am]}$PEPTIDE1,PEPTIDE1,3:R3-8:R3$$$V2.0) are 89% and 82%.
